Results: US10413505B1, “Pharmaceutical compositions and methods of using the same” (priority 2017, dated 2019)
Where a name gives a salt, the structure may show the parent alone. Read-outs that look alike come from different tables or passages of the source.

Key:
[1] = system: subjects undergoing diagnostic procedures and surgeries on or through the mucous membranes of the nasal cavities
Excerpt: Example 8 was a randomized, prospective, double-blind, multicenter, single-dose, placebo and dose-controlled, parallel-group study to evaluate the safety of the 4% and 8% cocaine hydrochloride pharmaceutical compositions as described in Example 4 used as a local anesthetic for diagnostic procedures and surgeries on or through the mucous membranes of the nasal cavities (e.g., nasal/sinus endoscopy, sinusotomy, fracture nasal turbinate(s), lysis intranasal synechia, insertion of nasal septal prosthesis, intranasal biopsy, excision of nasal polyps, excision turbinate(s), removal of an intranasal foreign body, septoplasty, or sinus debridement). […] The study consisted of a screening period within 14 days of a diagnostic procedure or surgery; a treatment period on the day of the diagnostic procedure or surgery (Day 1); and a follow-up visit (Day 8).
Two saturated pledgets were placed into each nasal cavity and up against the septum for 20 minutes. After 20 minutes the pledgets were removed from the subjects.
To address the potential for the impact of body weight on efficacy and safety, the study conducted the following additional analyses: • Analysis of efficacy (primary endpoint) for 2 subgroups of low weight subjects: <50 kg and <60 kg (see Table 53) • Analysis of safety (AEs) for 2 subgroups of low weight subjects: <50 kg and <60 kg (see Table 54) • Analysis of safety (AEs) for 2 subgroups of subjects based on dose determined on a mg/kg basis (regardless of 4% or 8% dose): ≤3 mg/kg or >3 mg/kg) (Table 55) Note: There is overlap between the body weight groups examined because the <60 kg group has no lower limit of weight.

Sprague Dawley rats [2] = assay: Example 10 cocaethylene HCl intranasal toxicity, Single-Dose Phase; format: in vivo, rat
Protocol: Cocaethylene HCl in the vehicle (deionized water) was administered by intranasal instillation once to a group (Group 2) of Sprague Dawley rats at a dose level of 2.1 mg/kg. […] The dose volume was 0.22 mL/kg, divided between the 2 nares, for both groups. Groups 1 and 2 each consisted of 20 animals/sex. Following dose administration, 10 animals/sex/group were euthanized on Study Day 1; the remaining 10 animals/sex/group were euthanized following a 14-day non-dosing (recovery) period. Criteria for evaluation included daily mortality observations, daily clinical observations, detailed physical observations, body weights, food consumption, clinical pathology (hematology, coagulation, serum chemistry, and urinalysis), organ weights, gross pathology, and microscopic examination of select tissues.
(§1) The vehicle and test article formulations were administered by intranasal instillation into each naris via a syringe equipped with stainless steel-shafted, stainless steel ball-tipped dosing cannula once (Single-Dose Phase) or once daily for 14 consecutive days (Repeat-Dose Phase), through the day prior to the primary necropsy. The same syringe and dosing cannula was used to administer the dose across both nares for a given animal on a given dosing day. The total dose volume administered per dose was split approximately equally across each naris, such that approximately half of the total dose volume was administered into one naris, and the remaining was administered into the other naris. Treatment administration across each naris for an individual animal occurred at approximately the same time. The dose volume for all groups was 0.22 mL/kg. Individual doses were based on the most recently recorded body weights. Adjusted doses became effective the day of collection of the weekly body weights. The first day of dosing was Study Day 0; the first week of dosing was Study Week 0.
(§2) All animals were observed twice daily, once in the morning and once in the afternoon, for mortality and moribundity.
(§3) Clinical examinations were performed at the time of dose administration and 1 to 2 hours following dose administration. During the recovery period, the animals were observed once daily. The absence or presence of findings was recorded for individual animals at the scheduled intervals. For the Single-Dose Phase, detailed physical examinations were conducted on all animals within 4 days of receipt, on the day of randomization, and on Study Days 0, 1, 7, and 14. For the Repeat-Dose Phase, detailed physical examinations were conducted on all animals within 4 days of receipt, on the day of randomization, weekly (±2 days) during the study period, and on the day of the scheduled necropsies. Daily observations during the recovery period were not necessary on days when detailed physical examinations were conducted.
(§4) Individual body weights were recorded within 4 days of receipt, on the day of randomization, Study Day 0 (prior to dosing), weekly (±2 days) during the study period, and on the day prior to the scheduled necropsies (nonfasted). Mean body weights and mean body weight changes were calculated for the corresponding intervals. Final body weights (fasted) were recorded on the day of the scheduled necropsies.
(§5) Cage food weights were recorded once weekly (±2 days) beginning following randomization and throughout the study period. Food consumption was calculated as g/animal/day for the corresponding body weight intervals.
(§6) Blood and urine samples for clinical pathology evaluations (hematology, coagulation, serum chemistry, and urinalysis) were collected from all animals assigned to the scheduled necropsies. The animals were fasted overnight prior to blood collection while in metabolism cages for urine collection. Blood was collected from a jugular vein and from the vena cava at the time of necropsy. Blood was collected into tubes containing potassium K2EDTA (hematology), sodium citrate (coagulation), or no anticoagulant (serum chemistry). […]

Sprague Dawley rats [3] = assay: Example 10 cocaethylene HCl intranasal toxicity, Repeat-Dose Phase; format: in vivo, rat
Protocol: Cocaethylene hydrochloride in the vehicle was administered by intranasal instillation once daily for 14 days to a group (Group 2) of Sprague Dawley rats at a dosage level of 2.1 mg/kg/day. […] The dose volume was 0.22 mL/kg, divided between the 2 nares, for both groups. Groups 1 and 2 each consisted of 15 animals/sex. Following 14 days of dose administration, 10 animals/sex/group were euthanized; the remaining […] animals/sex/group were euthanized following a 14-day nondosing (recovery) period. Criteria for evaluation included daily mortality observations, daily clinical observations, detailed physical observations, body weights, food consumption, clinical pathology (hematology, coagulation, serum chemistry, and urinalysis), organ weights, gross pathology, and microscopic examination of select tissues.
as §1, §2, §3, §4, §5, §6

[4] = 2.1 mg/kg once, intranasal instillation
[5] = 2.1 mg/kg/day for 14 days, intranasal instillation

COC(=O)[C@H]1[C@@H](OC(=O)c2ccccc2)C[C@@H]2CC[C@H]1N2C [Cocaine HCl]
Adverse events: Anxiety ([1]; >3% mg/kg): 2 (0.8) n (%) | Adverse events: Dermatitis allergic ([1]; >3% mg/kg): 1 (0.4) n (%) | Adverse events: Dizziness ([1]; >3% mg/kg): 1 (0.4) n (%) | Adverse events: Dysphonia ([1]; >3% mg/kg): 0 n (%) | Adverse events: Epistaxis ([1]; >3% mg/kg): 2 (0.8) n (%) | Adverse events: Eye disorders ([1]; >3% mg/kg): 1 (0.4) n (%) | Adverse events: Facial pain ([1]; >3% mg/kg): 1 (0.4) n (%) | Adverse events: Fatigue ([1]; >3% mg/kg): 0 n (%) | Adverse events: Foreign body sensation in eyes ([1]; >3% mg/kg): 1 (0.4) n (%) | Adverse events: Gastrointestinal disorders ([1]; >3% mg/kg): 1 (0.4) n (%) | Adverse events: General disorders and administration site conditions ([1]; >3% mg/kg): 1 (0.4) n (%) | Adverse events: Headache ([1]; >3% mg/kg): 4 (1.6) n (%) | Adverse events: Hypertension ([1]; >3% mg/kg): 0 n (%) | Adverse events: Injury, poisoning and procedural complications ([1]; >3% mg/kg): 1 (0.4) n (%) | Adverse events: Lip swelling ([1]; >3% mg/kg): 1 (0.4) n (%) | Adverse events: Masculoskeletal and connective tissue disorders ([1]; >3% mg/kg): 1 (0.4) n (%) | Adverse events: Medication error ([1]; >3% mg/kg): 1 (0.4) n (%) | Adverse events: Nasal congestion ([1]; >3% mg/kg): 1 (0.4) n (%) | Adverse events: Nausea ([1]; >3% mg/kg): 0 n (%) | Adverse events: Neck pain ([1]; >3% mg/kg): 1 (0.4) n (%) | Adverse events: Nervous system disorders ([1]; >3% mg/kg): 5 (2.0) n (%) | Adverse events: Psychiatric disorders ([1]; >3% mg/kg): 2 (0.8) n (%) | Adverse events: Respiratory, thoracic and mediastinal disorders ([1]; >3% mg/kg): 3 (1.2) n (%) | Adverse events: Rhinorrhea ([1]; >3% mg/kg): 0 n (%) | Adverse events: Skin and subcutaneous tissue disorders ([1]; >3% mg/kg): 2 (0.8) n (%) | Adverse events: Sneezing ([1]; >3% mg/kg): 0 n (%) | Adverse events: Upper-airway cough syndrome ([1]; >3% mg/kg): 0 n (%) | Adverse events: Vascular disorders ([1]; >3% mg/kg): 0 n (%) | Adverse events: Vision blurred ([1]; >3% mg/kg): 0 n (%) | Any AE ([1]; >3% mg/kg): 14 (5.7) n (%) | Adverse events: Cold sweat ([1]; >3% mg/kg, under General disorders and administration site conditions): 0 n (%) | Adverse events: Cold sweat ([1]; >3% mg/kg, under Skin and subcutaneous tissue disorders): 1 (0.4) n (%) | Adverse events: Anxiety ([1]; ≤3 mg/kg): 0 n (%) | Adverse events: Dermatitis allergic ([1]; ≤3 mg/kg): 0 n (%) | Adverse events: Dizziness ([1]; ≤3 mg/kg): 1 (0.3) n (%) | Adverse events: Dysphonia ([1]; ≤3 mg/kg): 1 (0.3) n (%) | Adverse events: Epistaxis ([1]; ≤3 mg/kg): 3 (1.0) n (%) | Adverse events: Eye disorders ([1]; ≤3 mg/kg): 1 (0.3) n (%) | Adverse events: Facial pain ([1]; ≤3 mg/kg): 0 n (%) | Adverse events: Fatigue ([1]; ≤3 mg/kg): 1 (0.3) n (%) | Adverse events: Foreign body sensation in eyes ([1]; ≤3 mg/kg): 0 n (%) | Adverse events: Gastrointestinal disorders ([1]; ≤3 mg/kg): 1 (0.3) n (%) | Adverse events: General disorders and administration site conditions ([1]; ≤3 mg/kg): 2 (0.7) n (%) | Adverse events: Headache ([1]; ≤3 mg/kg): 7 (2.3) n (%) | Adverse events: Hypertension ([1]; ≤3 mg/kg): 1 (0.3) n (%) | Adverse events: Injury, poisoning and procedural complications ([1]; ≤3 mg/kg): 0 n (%) | Adverse events: Lip swelling ([1]; ≤3 mg/kg): 0 n (%) | Adverse events: Masculoskeletal and connective tissue disorders ([1]; ≤3 mg/kg): 0 n (%) | Adverse events: Medication error ([1]; ≤3 mg/kg): 0 n (%) | Adverse events: Nasal congestion ([1]; ≤3 mg/kg): 0 n (%) | Adverse events: Nausea ([1]; ≤3 mg/kg): 1 (0.3) n (%) | Adverse events: Neck pain ([1]; ≤3 mg/kg): 0 n (%) | Adverse events: Nervous system disorders ([1]; ≤3 mg/kg): 7 (2.3) n (%) | Adverse events: Psychiatric disorders ([1]; ≤3 mg/kg): 0 n (%) | Adverse events: Respiratory, thoracic and mediastinal disorders ([1]; ≤3 mg/kg): 6 (2.0) n (%) | Adverse events: Rhinorrhea ([1]; ≤3 mg/kg): 1 (0.3) n (%) | Adverse events: Skin and subcutaneous tissue disorders ([1]; ≤3 mg/kg): 0 n (%) | Adverse events: Sneezing ([1]; ≤3 mg/kg): 1 (0.3) n (%) | Adverse events: Upper-airway cough syndrome ([1]; ≤3 mg/kg): 0 n (%) | Adverse events: Vascular disorders ([1]; ≤3 mg/kg): 1 (0.3) n (%) | Adverse events: Vision blurred ([1]; ≤3 mg/kg): 1 (0.3) n (%) | Any AE ([1]; ≤3 mg/kg): 13 (4.3) n (%) | Adverse events: Cold sweat ([1]; ≤3 mg/kg, under General disorders and administration site conditions): 1 (0.3) n (%) | Adverse events: Cold sweat ([1]; ≤3 mg/kg, under Skin and subcutaneous tissue disorders): 0 n (%)

CCOC(=O)[C@@H]1C2CCC(C[C@@H]1OC(=O)c1ccccc1)N2C (stereo partly shown) [cocaethylene HCl, cocaethylene hydrochloride]
body weights (Sprague Dawley rats [2]; [4]): unaffected | clinical observations (Sprague Dawley rats [2]; [4]): no test article-related clinical observations | food consumption (Sprague Dawley rats [2]; [4]): unaffected | hematology and coagulation parameters (Sprague Dawley rats [2]; [4]): unaffected | macroscopic examination at necropsy (Sprague Dawley rats [2]; [4]): no test article-related macroscopic findings | organ weights (Sprague Dawley rats [2]; [4]): unaffected | serum chemistry parameters (Sprague Dawley rats [2]; [4]): unaffected | survival (Sprague Dawley rats [2]; [4]): All animals survived | urinalysis parameters (Sprague Dawley rats [2]; [4]): unaffected | microscopic examination (nasal cavity with turbinates) (Sprague Dawley rats [2]; 2.1 mg/kg once, intranasal instillation, also after 14-day recovery): No test article-related microscopic findings | pH of the dosing formulation (Sprague Dawley rats [2]; Single-Dose Phase, 9.6 mg/mL in deionized water, pH meter): 2.81 | tolerability (Sprague Dawley rats [3]; 2.1 mg/kg once or once daily for 14 days, intranasal instillation): well tolerated | body weights (Sprague Dawley rats [3]; [5]): unaffected | clinical observations (Sprague Dawley rats [3]; [5]): no test article-related clinical observations | food consumption (Sprague Dawley rats [3]; [5]): unaffected | hematology and coagulation parameters (Sprague Dawley rats [3]; [5]): unaffected | macroscopic examination at necropsy (Sprague Dawley rats [3]; [5]): no test article-related macroscopic findings | organ weights (Sprague Dawley rats [3]; [5]): unaffected | serum chemistry parameters (Sprague Dawley rats [3]; [5]): unaffected | survival (Sprague Dawley rats [3]; [5]): All animals survived | urinalysis parameters (Sprague Dawley rats [3]; [5]): unaffected | microscopic examination (nasal cavity with turbinates) (Sprague Dawley rats [3]; 2.1 mg/kg/day for 14 days, intranasal instillation, also after 14-day recovery): No test article-related microscopic findings | pH of the dosing formulation (Sprague Dawley rats [3]; Repeat-Dose Phase, 9.6 mg/mL in deionized water, pH meter): 2.81 | no-observed-effect level (NOEL) (Sprague Dawley rats [3]; intranasal instillation once or once daily for 14 days): 2.1 mg/kg/day
